Patent USRE31588E, “Imidazolylmethylthioethyl alkynyl guanidines” (Bristol-Myers Company, priority 1981, dated 1984)
Entries after “also recorded” stand apart in the source; their conditions may differ. One block for each compound: values may come before it.

Legend:
[1] = molecular target: T1, histamine H2-receptors (isolated, spontaneously beating guinea pig right atria) (Cavia porcellus, UniProt P47747); conditions: cited from earlier work
[2] = molecular target: T1, histamine H2-receptors (isolated, spontaneously beating guinea pig right atria); assay: Histamine H2-receptor antagonism, isolated guinea pig atria assay; format: cell-based; set-up: The spontaneously beating right atrium was dissected free from other tissues; from tissue; host or cells: isolated, spontaneously beating right atrium of male Hartley guinea pigs; conditions: for Histamine ED50 (concentration of histamine which increased contractile rate 50% of maximum) after test compound: test compound 1 × 10^-5 M, 30 minute incubation
Experimental: Subsequent investigations by Hughes and Coret, Proc. Soc. […] Black et al., Agents and Actions, 3, 133 (1973) and Brimblecombe et al., Fed. […] The present comparative studies were carried out using a modification of the procedure reported by Reinhardt et al., Agents and Actions, 4, 217 (1974).
Male Hartley strain guinea pigs (350-450 gm.) were sacrificed by a blow on the head. The heart was excised and placed in a Petri dish of oxygenated (95% O2, 5% CO2) modified Krebs solution (g./liter: NaCl 6.6, KCl 0.35, MgSO4. 7 H2 O 0.295, KH2 PO4 0.162, CaCl2 0.238, NaHCO3 2.1 and dextrose 2.09). The spontaneously beating right atrium was dissected free from other tissues and a silk thread (4-0) attached to each end. The atrium was suspended in a 20 ml. muscle chamber containing oxygenated modified Krebs solution maintained at 32° C. Atrial contractions were recorded isometrically by means of a Grass FT 0.03 force displacement transducer and recordings of contractile force and rate were made with a Beckman RP Dynograph.
A resting tension of 1 g. was applied to the atrium and it was allowed to equilibrate for 1 hour.
Concentration-response curve displacement factors were calculated as follows: [formula] The factor obtained for BL-5641 was then expressed as a ratio of the factor obtained for cimetidine. [formula]

[3] = system: H2 receptor; conditions: cited from earlier work
[4] = system: gastric acid output; assay: Gastric antisecretory activity in the gastric fistula dog (histamine-induced); format: in vivo, dog (beagle); conditions: for Onset of inhibitory effect on gastric acid output: iv
Experimental: Thomas type [Thomas, J. E., Proc. Soc. exp. Biol. Med., 46, 260 (1941)] stainless steel cannulae are inserted into the stomachs of beagle dogs (10-12 kg.) just orad to the pyloric gland area near the greater curvature to provide a chronic gastric fistula. Animals are allowed to recover for at least two months before any testing is done. Dogs are fasted overnight (~18 hours) with water ad lib prior to each experiment. The dogs are placed in a sling and an eight inch inside needle catheter (C. R. Baird, Inc.) with a 2 inch 17 gauge needle is inserted into a leg vein fior purposes of drug administration. Gastric secretions are collected every 15 minutes by gravity drainage from the opened cannula. […] A modification of the procedure described by Grossman and Konturek, Gastroenterology, 66, 517 (1974) was followed. […] Each 15 minute sample of gastric juice is measured to the nearest 0.5 ml. and titratable acidity against 0.02N NaOH (endpoint pH 7.0) is measured with an Autoburet and pH meter (radiometer). The percent inhibition of acid output is calculated as described in the pylorus ligated rat procedure.

[5] = in vivo, cited from earlier work
[6] = clinical; cited from earlier work
[7] = system: peptic ulcer disease; conditions: Gray et al., Lancet 1977; cited from earlier work
[8] = system: gastric secretion; conditions: cited from earlier work
[9] = system: gastric acid output; assay: Gastric antisecretory activity in the two hour pylorus ligated (Shay) rat; format: in vivo, rat (male Long Evans); conditions: vs cimetidine
Description: The pyloric ligation procedure in the rat was designed by Shay et al., Gastroenterology, 5, 53 (1945) for the study of perforating gastric ulcers; however, as the method became known, it was also employed as a means of studying rat gastric secretion, Shay et al., Gastroenterology, 26, 906 (1954), Brodie, D. A., Am. J. Dig. […] A modification of this procedure is presently used to evaluate compounds for gastric antisecretory activity.
Male Long Evans rats, 280-300 gm., are used. The animals are placed in individual cages and fasted for 24 hours with free access to water. Under ether anesthesia, the stomach is reached through a midline incision, and a cotton-thread ligature is placed around the pylorus. After wound closure, ether administration is stopped and either BL-5641, cimetidine or vehicle are administered intraperitoneally in a volume of […]. BL-5641 and cimetidine are solubilized with one equivalent of HCl and brought to the proper volume with water. The animals are returned to their cages from which the water bottles have been removed and two hours later are sacrificed with ether. […] Titratable acid output is calculated in microequivalents by multiplying the volume in milliliters by the acid concentration in milliequivalents per liter. The percent inhibition of acid output is calculated as follows [formula]

T1 sequence (P47747 whole entry): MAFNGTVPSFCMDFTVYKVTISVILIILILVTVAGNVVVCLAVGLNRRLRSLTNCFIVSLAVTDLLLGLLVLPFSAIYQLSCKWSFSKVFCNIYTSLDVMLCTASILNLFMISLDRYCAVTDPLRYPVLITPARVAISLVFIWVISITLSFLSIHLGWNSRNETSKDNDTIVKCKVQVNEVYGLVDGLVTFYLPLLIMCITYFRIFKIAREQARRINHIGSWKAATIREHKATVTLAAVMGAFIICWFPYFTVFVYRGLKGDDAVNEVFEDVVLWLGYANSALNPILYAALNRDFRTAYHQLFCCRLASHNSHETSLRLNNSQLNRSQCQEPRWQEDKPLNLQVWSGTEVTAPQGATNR

Structure (SMILES): NCCc1c[nH]cn1 [Histamine]
Effect on contractile rate of guinea pig right atria [1]: concentration-related increases in the contractile rate | Histamine concentration at which maximal response occurred ([2]; cumulative histamine addition): 30 µM

Structure (SMILES): CNC(=NC#N)NCCSCc1[nH]cnc1C [Cimetidine]
H2 antagonist potency/effectiveness [3]: as effective an H2 antagonist as metiamide | Onset of inhibitory effect on gastric acid output [4]: immediate inhibitory effect on gastric acid output | Histamine ED50 (concentration of histamine which increased contractile rate 50% of maximum) after test compound [2]: 1.39 µg/mL | Half-life [5]: relatively short | Agranulocytosis [6]: without producing agranulocytosis | Effectiveness in treatment of peptic ulcer disease [7]: effective therapeutic agent in the treatment of peptic ulcer disease

Structure (SMILES): CNC(=S)NCCSCc1[nH]cnc1C [Metiamide]
H2 antagonist potency/effectiveness [3]: more potent than burimamide | Oral activity ([8]; man): orally active in man | Agranulocytosis [6]: toxicity (agranulocytosis)

Structure (SMILES): CNC(=S)NCCCCc1cnc[nH]1 [Burimamide]
Mode of antagonism at histamine H2-receptors ([3]; Black et al., Nature 1972): competitive antagonist | Inhibition of gastric secretion ([8]; animals and man): inhibits gastric secretion in animals and man | Clinical effectiveness as H2 receptor antagonist ([8]; clinical): first clinically effective H2 receptor antagonist | Oral absorption ([5]; po): oral absorption is poor

Potency as histamine H2-receptor antagonist ([2]; isolated guinea pig atria, vs cimetidine): more potent than cimetidine | Histamine ED50 (concentration of histamine which increased contractile rate 50% of maximum) after test compound [2]: 12.44 µg/mL
Structure (SMILES): C#CCN=C(NC#N)NCCSCc1[nH]cnc1C [BL-5641, N-Cyano-N'-{2-[(4-methyl-5-imidazolyl)methylthio]ethyl}-N"-propargylguanidine]
Potency for inhibition of gastric acid output [9]: more potent than cimetidine; also recorded: at least as potent as cimetidine | Duration of activity ([4]; equal doses, vs cimetidine): longer duration of activity than cimetidine | Degree and duration of inhibition ([4]; equimolar doses, vs cimetidine): consistently greater and of longer duration with BL-5641 than with cimetidine | Onset of inhibitory effect on gastric acid output [4]: immediate inhibitory effect on gastric acid output | Potency as inhibitor of gastric secretion ([4]; vs cimetidine): more potent and/or longer acting than cimetidine; also recorded: more potent than cimetidine
